Patent publication US12233129B2, “Methods and compositions for the treatment of cancer” (priority 2019, dated 2025)
Entries after “also recorded” stand apart in the source; their conditions may differ.

How the values were obtained:
p53 = experiment: Western blot of p53 in cytoplasmic and nuclear fractions of HCT-116 cells; assay type: cell-based, human; details: VTD 10 and 30 μM
Description: We next performed a clonogenic survival assay (S4E) to determine colony formation in cancer cells in the presence and absence of VTD. […] At the same time, we measured the mot-2, p53, and UBXN2A protein levels in all these cell lines. […] To verify whether VTD-induced cell death is mediated through the UBXN2A-mot-2-p53 axis, we looked at the expression of p53 in the cytoplasm and nucleus of HCT-116 cells following VTD treatment. […] Due to a high cell death in higher doses of VTD, we could not use WB analysis for reliable p53 and UBXN2A detection and quantification. Finally, we checked the effect of VTD on non-cancerous cell lines. […]
Nuclear and cytoplasmic fractions were prepared from the cells using NE-PER Nuclear and Cytoplasmic Extraction Reagents (Pierce, IL, USA) according to the manufacturer's instructions. Protein concentrations were determined by BCA assay followed by SDSPAGE and WB analysis with the appropriate antibodies (Supplementary Table S3).
FIG. 17: Induction of apoptosis and in vitro cytotoxicity by VTD in a human cancer cell line with different statuses of p53 and mot-2. […] After incubation, dead cells were washed off, and the remaining attached cells were calculated by counting in five random fields using the Axiovert 200 M inverted microscope and AxioVision software (cell detachment assay). The % of cells attached was calculated as % of control cells. […]

[1] = test system: UBXN2A silenced clones of HCT-116; experiment: Viability (MTT) and cell death (Sytox red flow cytometry) of UBXN2A silenced cells; assay type: cell-based, human
Method: We decided to confirm whether VTD-induced tumor suppression is indeed mediated via the UBXN2A-mot-2-p53 axis (FIG. 18H). After initial verification with WB (FIG. 18A), HCT-116 (p53+/+ and p53 −/−) and LoVo were treated with VTD for 24, 48, and 72 hours (FIG. 18B-D). […] We defined this phenomenon as a delayed cytotoxic response, since it occurs through UBXN2A transcription, as previously described for other anti-cancer agents. […] In the second set of experiments, we treated two stable UBXN2A silenced clones of HCT-116 along with controls with VTD. […] Staurosporine-treated cells were used as a positive control (S4F). […] Finally, to understand the contribution of mot-2 to the anti-cancer mechanism of VTD, we used a mot-2 inhibitor known as MKT-077 [7] along with VTD in well-differentiated SW-48 (WT-p53) colon cancer cells for 72 hours. Due to the critical role of mot-2 in the mitochondria, we could not use a silencing strategy for mot-2 in this set of experiments.
(§1) The viability of cells was calculated as % of control.
FIG. 18: Veratridine (VTD) functions via the UBXN2A-mot-2-p53 axis. (A) WB confirmed the presence and the absence of p53 protein in HCT-116 p53^(+/+) and HCT-116 p53^(−/−) cancer cell lines, respectively. […] (F) In another set of experiments, UBXN2A-silenced cells were treated with VTD (100, 200, and 300 μM) for 24 hours. […]

U2OS = experiment: Clonogenic survival assay; assay type: cell-based, human; details: as low as 30 μM VTD
Description: (§2) We next performed a clonogenic survival assay (S4E) to determine colony formation in cancer cells in the presence and absence of VTD. […] At the same time, we measured the mot-2, p53, and UBXN2A protein levels in all these cell lines. […] To verify whether VTD-induced cell death is mediated through the UBXN2A-mot-2-p53 axis, we looked at the expression of p53 in the cytoplasm and nucleus of HCT-116 cells following VTD treatment. […] Due to a high cell death in higher doses of VTD, we could not use WB analysis for reliable p53 and UBXN2A detection and quantification. Finally, we checked the effect of VTD on non-cancerous cell lines. We incubated human umbilical vein endothelial cells (HUVECs), which mimic non-cancerous endothelial cells next to tumor cells, with VTD (S4G). […] Due to the different levels of the stress condition, we observed more sensitivity to VTD in LoVo and U2OS cells versus HCT-116 cells. In addition, lack of similar response in normal cells due to the absence of stresses and cytoplasmic mot-2 further explains VTD is therefore a drug that selectively targets cancer cell.
as §1
(§3) FIG. 17: Induction of apoptosis and in vitro cytotoxicity by VTD in a human cancer cell line with different statuses of p53 and mot-2. (A-D) Cells were treated with VTD for 24, 48, and 72 hours. After incubation, dead cells were washed off, and the remaining attached cells were calculated by counting in five random fields using the Axiovert 200 M inverted microscope and AxioVision software (cell detachment assay). The % of cells attached was calculated as % of control cells. […] The data is shown as mean+SEM of three independent experiments (n=3, *p<0.05). (E-K) Cells were plated for 5 days, and the colonies of cells were treated with different concentration of VTD. The colonies of viable cells were stained with crystal violet dye and absorbance, as an index of measurement of colony forming units, was read at 562 nm (clonogenic survival assay). VTD induced a significant decrease in cell viability in a p53- and differentiation grade manner in HCT-116 poorly differentiated cells (E), HCT 116 p53+/−(F), HCT-116 p53−/− (G), LoVo well-differentiated cells (H), SW-480 (K), and two non-colon cancer cells: HepG2 (I) and U2OS (J). The data is shown as mean+SEM of three independent experiments (n=3, *p<0.05). (L) Determination of endogenous levels of mot-2, UBXN2A, HSC70, and p53 proteins in various cancer cell lines using WB. (M) HCT-116 cells were treated with VTD (10 and 30 μM) and cytoplasmic and nuclear fractions were subjected to WB. HSC70 and Orc-2 antibodies were used as cytoplasmic and nuclear markers, respectively.

SW480 = experiment: Clonogenic survival assay; assay type: cell-based, human; details: mutant p53, even at higher doses
Description: as §2, §1, §3

LoVo = experiment: Clonogenic survival assay; assay type: cell-based, human; details: as low as 30 μM VTD
Description: as §2, §1, §3

HCT-116 = experiment: Clonogenic survival assay; assay type: cell-based, human; details: in higher doses
Description: as §2, §1, §3

[2] = test system: HCT-116 p53+/− or p53 −/−; experiment: Clonogenic survival assay; assay type: cell-based, human; details: effective doses
Description: as §2, §1, §3

HepG2 = experiment: Clonogenic survival assay; assay type: cell-based, human; details: as low as 30 μM VTD
Description: as §2, §1, §3

[3] = test system: human umbilical vein endothelial cells (HUVECs); experiment: Effect on non-cancerous cells; assay type: cell-based
Description: as §2

COc1ccc(C(=O)O[C@H]2CC[C@@]3(C)[C@@H]4CC[C@H]5[C@]6(O)C[C@H](O)[C@@]7(O)[C@@H](CN8C[C@@H](C)CC[C@H]8[C@@]7(C)O)[C@]6(O)C[C@@]53O[C@]24O)cc1OC [VTD, Veratridine]
p53 levels in cytoplasm and nucleus (WB) (p53): increases WT-p53 levels both in the cytoplasm and nucleus; also recorded: increases p53 in both cytoplasm and nucleus compartments in a dose-dependent manner
cell viability of UBXN2A silenced cells versus control cells upon VTD ([1]; MTT): greater cell viability than control cells; also recorded: significantly higher as compared to control cells
cell death (Sytox red) of UBXN2A silenced cells upon VTD ([1]; VTD 100, 200 and 300 μM, 24 hours): significant decrease in the cell death; also recorded: significantly decreases cell death
number of colonies (U2OS): significantly decreases the number of colonies
number of colonies (SW480): no response
number of colonies (LoVo): significantly decreases the number of colonies
colony formation (HCT-116): reduces colony formation
p53 dependence of anti-colony formation role [2]: partially p53 dependent
number of colonies (HepG2): significantly decreases the number of colonies
response of non-cancerous HUVEC cells ([3]; first 24 hours): did not respond
response of non-cancerous HUVEC cells ([3]; highest dose of VTD, 48 hours): moderate response
